Read-outs that look alike come from different tables or passages of the source.
What was measured:
[1] = test system: Plutella xylostella (Diamond-back Moth); assay: whole plant or invertebrate; assay type: in vivo; conditions: foliar; for mortality at 500 ppm: read-out: mortality of larvae of Plutella xylostella; for pest or weed control at 500 ppm: read-out: Plutella % m 500 ppm
From the text: (§1) One or more dilutions of the compounds to be tested were made in 50% aqueous acetone.
(§2) a) Test species: Plutella xylostella (Diamond-back Moth) and Phaedon cochleariae (Mustard Beetle)
(§3) Turnip leaf discs were set in agar in petri-dishes and infected with 10 larvae (2nd instar Plutella or 3rd instar Phaedon). Four replicate dishes were assigned to each treatment and were sprayed under a Potter Tower with the appropriate test dilution. Four or five days after treatment the dishes were removed from the constant temperature (25° C.) room in which they had been held and the mean percentage mortalities of larvae were determined.

[2] = test system: Phaedon cochleariae (Mustard Beetle); assay: Test 3 a): leaf disc spray test, Phaedon cochleariae larvae; assay type: in vivo; conditions: for pest or weed control at 10 ppm / mortality at 5 ppm: Phaedon cochleariae, foliar; for pest or weed control at 10 ppm: read-out: Phaedon % m 10 ppm; for mortality at 5 ppm: read-out: mortality of larvae of Phaedon cochleariae
From the text: as §1, §2, §3

SMILES	mortality at 500 ppm [1] [%]	mortality at 5 ppm [2] [%]	further results
N#Cc1c(F)nn(-c2c(Cl)cc(C(F)(F)F)cc2Cl)c1N [Compound 202, 5-Amino-1-(2,6-dichloro-4-trifluoromethylphenyl)-4-cyano-3-fluoropyrazole]	100		
Nc1c([N+](=O)[O-])c(C(F)(F)F)nn1-c1c(Cl)cc(C(F)(F)F)cc1Cl [Compound 143, 5-Amino-1-(2,6-dichloro-4-trifluoromethylphenyl)-4-nitro-3-trifluoromethylpyrazole]	100		pest or weed control at 10 ppm [2]: 100%
CNS(=O)(=O)c1c(C(F)(F)F)nn(-c2c(Cl)cc(C(F)(F)F)cc2Cl)c1N [Compound 199, 5-Amino-1-(2,6-dichloro-4-trifluoromethylphenyl)-4-(N-methylsulphamoyl)-3-trifluoromethylpyrazole]		100	
Nc1c(I)c(C(F)(F)F)nn1-c1c(Cl)cc(C(F)(F)F)cc1Cl [Compound 189, 5-Amino-1-(2,6-dichloro-4-trifluoromethylphenyl)-4-iodo-3-trifluoromethylpyrazole]	100		
N#Cc1c(I)nn(-c2c(Cl)cc(C(F)(F)F)cc2Cl)c1N [Compound 116, 5-Amino-3-iodo-4-cyano-1-(2,6-dichloro-4-trifluoromethylphenyl)pyrazole]	100		pest or weed control at 10 ppm [2]: 93%
Cc1c(C#N)c(C(F)(F)F)nn1-c1c(Cl)cc(C(F)(F)F)cc1Cl [Compound 152, 4-Cyano-1-(2,6-dichloro-4-trifluoromethylphenyl)-5-methyl-3-trifluoromethylpyrazole]	100		pest or weed control at 10 ppm [2]: 100%
N#Cc1c(C(F)(F)F)nn(-c2c(Cl)cc(C(F)(F)F)cc2Cl)c1NC(=O)C1CC1 [Compound 147, 4-Cyano-1-(2,6-dichloro-4-trifluoromethylphenyl)-5-cyclopropanecarbonamido-3-trifluoromethylpyrazole]			Phaedon % m 10 ppm ([2]; Tables 1-3, % mortality at 10 ppm): 100%
COC(=O)Nc1c(C#N)c(C(F)(F)F)nn1-c1c(Cl)cc(C(F)(F)F)cc1Cl [Compound 212, 4-Cyano-1-(2,6-dichloro-4-trifluoromethylphenyl)-5-methoxycarbonylamino-3-trifluoromethylpyrazole]	100	100	
CS(=O)(=O)c1c(C(F)(F)F)nn(-c2c(Cl)cc(C(F)(F)F)cc2Cl)c1N [Compound 130, 5-Amino-1-(2,6-dichloro-4-trifluoromethylphenyl)-4-methanesulphonyl-3-trifluoromethylpyrazole]	100		pest or weed control at 10 ppm [2]: 100%
C[S+]([O-])c1c(C(F)(F)F)nn(-c2c(Cl)cc(C(F)(F)F)cc2Cl)c1N (centres unmarked) [Compound 216, 5-Amino-1-(2,6-dichloro-4-trifluoromethylphenyl)-4-methylsulphinyl-3-trifluoromethylpyrazole]	100	100	
CCOC(=O)N(C(C)=O)c1c(C#N)c(C(F)(F)F)nn1-c1c(Cl)cc(C(F)(F)F)cc1Cl [Compound 184, 5-(N-Acetyl-N-ethoxycarbonylamino)-4-cyano-1-(2,6-dichloro-4-trifluoromethylphenyl)-3-trifluoromethylpyrazole]	100		
CC(C)(C)C(=O)Nc1c(C#N)c(Cl)nn1-c1c(Cl)cc(C(F)(F)F)cc1Cl [Compound 180, 3-Chloro-1-(2,6-dichloro-4-trifluoromethylphenyl)-4-cyano-5-trimethylacetylaminopyrazole]	100		
CCOC(=O)Nc1c(S(C)(=O)=O)c(C(F)(F)F)nn1-c1c(Cl)cc(C(F)(F)F)cc1Cl [Compound 187, 1-(2,6-Dichloro-4-trifluoromethylphenyl)-5-ethoxycarbonylamino-4-methanesulphonyl-3-trifluoromethylpyrazole]	100	100	
CCOC(=O)CNc1c(C#N)c(C(F)(F)F)nn1-c1c(Cl)cc(C(F)(F)F)cc1Cl [Compound 137, 4-Cyano-1-(2,6-dichloro-4-trifluoromethylphenyl)-5-ethoxycarbonylmethylamino-3-trifluoromethylpyrazole]			pest or weed control at 500 ppm [1]: 48%; pest or weed control at 10 ppm [2]: 100%
C[S+]([O-])c1c(C#N)c(C(F)(F)F)nn1-c1c(Cl)cc(C(F)(F)F)cc1Cl (centres unmarked) [Compound 220, 4-Cyano-1-(2,6-dichloro-4-trifluoromethylphenyl)-5-methylsulphinyl-3-trifluoromethylpyrazole]		100	
CCOC(=O)Nc1c(C#N)c(C#N)nn1-c1c(Cl)cc(C(F)(F)F)cc1Cl [Compound 188, 1-(2,6-Dichloro-4-trifluoromethylphenyl)-3,4-dicyano-5-ethoxycarbonylaminopyrazole]	100	100	

SMILES	mortality at 500 ppm [1] [%]	mortality at 5 ppm [2] [%]	further results
C[Si](C)(C)c1c(C#N)c(C(F)(F)F)nn1-c1c(Cl)cc(C(F)(F)F)cc1Cl [Compound 205, 4-Cyano-1-(2,6-dichloro-4-trifluoromethylphenyl)-3-trifluoromethyl-5-trimethylsilylpyrazole]		100	
CC(C)(C)C(=O)Nc1c([N+](=O)[O-])c(C(F)(F)F)nn1-c1c(Cl)cc(C(F)(F)F)cc1Cl [Compound 178, 1-(2,6-Dichloro-4-trifluoromethylphenyl)-4-nitro-3-trifluoromethyl-5-trimethylacetylaminopyrazole]	100	100	
CC(=O)N(C(=O)C(C)(C)C)c1c(C#N)c(C(F)(F)F)nn1-c1c(Cl)cc(C(F)(F)F)cc1Cl [Compound 176, 4-Cyano-1-(2,6-dichloro-4-trifluoromethylphenyl)-5-(N-acetyl-N-trimethylacetylamino)-3-trifluoromethylpyrazole]	100		
CCOC(=O)Nc1c(C#N)c(C(F)(F)F)nn1-c1c(Cl)cc(C(F)(F)F)cc1Cl [Compound 149, 4-Cyano-1-(2,6-dichloro-4-trifluoromethylphenyl)-5-ethoxycarbonylamino-3-trifluoromethylpyrazole]			mortality at 500 ppm ([1]; Test 3 method (a), application of 500 ppm): 100%; pest or weed control at 10 ppm [2]: 100%
N#Cc1c(C(F)(F)F)nn(-c2c(Cl)cc(C(F)(F)F)cc2Cl)c1C#N [Compound 213, 1-(2,6-Dichloro-4-trifluoromethylphenyl)-4,5-dicyano-3-trifluoromethylpyrazole]	100		
CCOC(=O)Nc1c(C#N)c(Cl)nn1-c1c(Cl)cc(C(F)(F)F)cc1Cl [Compound 182, 3-Chloro-1-(2,6-dichloro-4-trifluoromethylphenyl)-4-cyano-5-ethoxycarbonylaminopyrazole]		100	
CCS(=O)(=O)c1c(C(F)(F)F)nn(-c2c(Cl)cc(C(F)(F)F)cc2Cl)c1N [Compound 221, 5-Amino-1-(2,6-dichloro-4-trifluoromethylphenyl)-4-ethylsulphonyl-3-trifluoromethylpyrazole]		100	
CCC(=O)N(C(=O)C(C)(C)C)c1c(C#N)c(C(F)(F)F)nn1-c1c(Cl)cc(C(F)(F)F)cc1Cl [Compound 177, 4-Cyano-1-(2,6-dichloro-4-trifluoromethylphenyl)-5-(N-propionyl-N-trimethylacetylamino)-3-trifluoromethylpyrazole]	100		
CSc1c(C#N)c(C(F)(F)F)nn1-c1c(Cl)cc(C(F)(F)F)cc1Cl [Compound 207, 4-Cyano-1-(2,6-dichloro-4-trifluoromethylphenyl)-5-methylthio-3-trifluoromethylpyrazole]	100	100	
N#Cc1c(C(F)(F)F)nn(-c2c(Cl)cc(C(F)(F)F)cc2Cl)c1N(C(=O)C1CC1)C(=O)C1CC1 [Compound 146, 4-Cyano-1-(2,6-dichloro-4-trifluoromethylphenyl)-5-bis(cyclopropanecarbonyl)amino-3-trifluoromethylpyrazole]	100		pest or weed control at 10 ppm [2]: 85%
N#Cc1cn(-c2c(Cl)cc(C(F)(F)F)cc2Cl)nc1F [Compound 195, 4-Cyano-1-(2,6-dichloro-4-trifluoromethylphenyl)-3-fluoropyrazole]	100		
NC(=O)c1c(C(F)(F)F)nn(-c2c(Cl)cc(C(F)(F)F)cc2Cl)c1N [Compound 131, 5-Amino-4-carbamoyl-1-(2,6-dichloro-4-trifluoromethylphenyl)-3-trifluoromethylpyrazole]			pest or weed control at 500 ppm [1]: 58%; pest or weed control at 10 ppm [2]: 100%
CCOC(=O)N(C(=O)OCC)c1c(C#N)c(Cl)nn1-c1c(Cl)cc(C(F)(F)F)cc1Cl [Compound 181, 3-Chloro-1-(2,6-dichloro-4-trifluoromethylphenyl)-4-cyano-5-bis(ethoxycarbonyl)aminopyrazole]	100		
Nc1c(Br)c(C(F)(F)F)nn1-c1c(Cl)cc(C(F)(F)F)cc1Cl [Compound 140, 5-Amino-4-bromo-1-(2,6-dichloro-4-trifluoromethylphenyl)-3-trifluoromethylpyrazole]	100		pest or weed control at 10 ppm [2]: 84%
C[Si](C)(C)Cc1c(C#N)c(C(F)(F)F)nn1-c1c(Cl)cc(C(F)(F)F)cc1Cl [Compound 211, 4-Cyano-1-(2,6-dichloro-4-trifluoromethylphenyl)-3-trifluoromethyl-5-trimethylsilylmethylpyrazole]	100		
CCNS(=O)(=O)c1c(C(F)(F)F)nn(-c2c(Cl)cc(C(F)(F)F)cc2Cl)c1N [Compound 198, 5-Amino-1-(2,6-dichloro-4-trifluoromethylphenyl)-4-(N-ethylsulphamoyl)-3-trifluoromethylpyrazole]		100	

Reference: patent US6372774B1, “Derivatives of N-phenylpyrazoles” (Rhone-Poulenc Agriculture Ltd., priority 1985, dated 2002)
